According to PMC4847944 (Bioorganic & medicinal chemistry, 2014):
Where two headings read alike, the source gives them in different places. Marks after values point to notes of the source that are not given here. One block for each molecule: values may come before it.

Key:
MDA-kb2 cell line [1] = experiment: Cytotoxicity in MDA-kb2 cells
[2] = Solubility in phosphate buffer and cell culture media; format: physicochemical; conditions: highest concentration tested per footnote f
MDA-kb2 cell line [3] = tested on: MDA-kb2 cell line

SMILES: CO[C@H]1[C@H](OC(=O)c2ccc(C)[nH]2)[C@H](O)[C@@H](Oc2ccc3c(O)c(NC(=O)c4c[nH]c(C(=O)Nc5c(O)c6ccc(O[C@H]7OC(C)(C)[C@@H](OC)[C@H](OC(=O)c8ccc(C)[nH]8)[C@@H]7O)c(C)c6oc5=O)c4C)c(=O)oc3c2C)OC1(C)C [Coumermycin A1, coumermycin A1]
- MDA-kb2 cell culture LC50 (MDA-kb2 cell line [1]; concentration at which cell viability was reduced by 50%, Promega Cell Titer Glo kit): 19.1 ± 9.1 µM
- Cytotoxicity in MDA-kb2 cells (result in words) (MDA-kb2 cell line [1]; same conditions as the reporter assay): some accompanying toxicity

- Solubility limit in cell culture media [2]: >2^f μM
SMILES: COC1=C2C[C@@H](C)C[C@H](OC)[C@H](O)[C@@H](C)/C=C(\C)[C@H](OC(N)=O)[C@@H](OC)/C=C\C=C(/C)C(=O)NC(=CC1=O)C2=O [Geldanamycin, geldanamycin]
- MDA-kb2 cell culture LC50 (MDA-kb2 cell line [3]): >2^f μM

SMILES: CO[C@@H]1[C@@H](OC(N)=O)[C@@H](O)[C@H](Oc2ccc3c(O)c(NC(=O)c4ccc(O)c(CC=C(C)C)c4)c(=O)oc3c2C)OC1(C)C [Novobiocin, novobiocin]
- Cytotoxicity in MDA-kb2 cells (result in words) (MDA-kb2 cell line [3]): some accompanying toxicity
- MDA-kb2 cell culture LC50 (MDA-kb2 cell line [3]): 690 ± 188 µM
